Patent publication US20260364057A1, “AMIDE COMPOUND, AND COMPOSITION AND USE THEREOF” (SIMCERE ZAIMING PHARMACEUTICAL CO., LTD., priority 2022, published 2026)

What was measured:
Human KIF18A (1-376aa) = molecular target: T1, Human KIF18A (1-376aa) (Homo sapiens, UniProt Q8NI77); assay: KIF18A enzyme activity assay (ADP-Glo); type: biochemical; settings: microtubule 50 μg/mL, ATP (Km 70 μM), room temperature, 15 min, read-out: KIF18A inhibitory activity IC50
T1 construct: Human KIF18A (1-376aa) protease used in the experiments; purchased Shanghai Panchao Biotechnology Co., Ltd
T1 sequence (Q8NI77 1-376): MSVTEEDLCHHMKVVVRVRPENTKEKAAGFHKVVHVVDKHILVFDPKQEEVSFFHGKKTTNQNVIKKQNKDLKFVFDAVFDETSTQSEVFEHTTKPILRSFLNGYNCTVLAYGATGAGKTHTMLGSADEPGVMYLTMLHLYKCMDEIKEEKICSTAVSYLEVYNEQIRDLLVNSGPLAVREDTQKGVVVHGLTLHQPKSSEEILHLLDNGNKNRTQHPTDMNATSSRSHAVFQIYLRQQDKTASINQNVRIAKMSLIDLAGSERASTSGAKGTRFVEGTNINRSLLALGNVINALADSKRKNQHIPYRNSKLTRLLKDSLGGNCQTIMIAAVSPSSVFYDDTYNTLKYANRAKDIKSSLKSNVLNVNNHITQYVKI

OVCAR3 cells = assay: Inhibition of proliferation of OVCAR-3 cells (Cell-Titer Glo); type: cell-based; settings: Homo sapiens, OVCAR-3, 72 h, 3 days, 1000 cells/well
Description: Test Example 2. Test on Inhibition of Proliferation of OVCAR-3 Cells by Compounds of Present Disclosure
Cell and material: The human ovarian cancer cell line OVCAR3 was purchased from ATCC (Cat. No. HTB-161™), RPMI 1640 medium (Gibco #A1049101), penicillin-streptomycin (Gibco #15140122), and 0.25% Trypsin-EDTA (Gibco #25200056) were purchased from Gibco (U.S.), bovine insulin (Yeasen #40107ES60) was purchased from Yeasen, 384-well plates (Corning #CLS3765) was purchased from Corning (U.S.), and Cell-Titer Glo reagent (Promega #G7568) was purchased from Promega (U.S.).
Cell culture: OVCAR3 cells were cultured in RPMI 1640 complete medium (RPMI 1640 medium containing 20% fetal bovine serum, […] bovine insulin, and 1% penicillin-streptomycin) in an incubator (37 °C, 5% CO2), and the cells could be used in experiments when in the logarithmic growth phase.
Cell proliferation activity test: The Cell-Titer Glo reagent was used to test the compound for inhibition of proliferation of the OVCAR3 cell strain. The compound formulated with DMSO and pure DMSO (control) were each added to a 384-well plate using an Echo instrument; the compound was subjected to 3-fold serial dilution starting from 30 μM to obtain 11 concentration points, and the volume of the compound or DMSO added was 100 nL.
OVCAR3 cells were digested and resuspended in RPMI 1640 complete medium, and the suspension was added to a 384-well plate (1000 cells/50 μL/well) to be well mixed with the compound. The mixture was incubated in an incubator (37 °C, 5% CO2) for 3 days. The Cell-Titer Glo reagent was added at 25 µL/well, and the resulting mixture was well mixed by shaking and then incubated for 10 min. The Cell-Titer Glo readings were measured with a Multimode Plate Reader (brand: PerkinElmer; model: SIC-PV-018).
A negative control group (Bottom) was set, and the negative control group was medium wells with 0.2% DMSO added and was defined as 100% proliferation inhibition; the positive control group (Top) was OVCAR3 cell wells with 0.2% DMSO added.
The percent proliferation inhibition (% Inhibition) was calculated, and the curves were fit using the four-parameter equation, Y=Bottom+(Top−Bottom)/(1+(IC50/X)^HillSlope), to obtain the proliferation inhibition IC50 of the compound. • Percent inhibition: % Inhibition=(1−(Signal−Bottom)/(Top−Bottom))×100%. • Signal: Cell-Titer Glo reading of wells with compound added; • Bottom: Cell-Titer Glo reading of negative control wells; • Top: Cell-Titer Glo reading of positive control wells.

Structure (SMILES)	IC50 (Human KIF18A (1-376aa))	IC50 (OVCAR3 cells)
O=C(Nc1cc2c(c(N3CC4C(C3)C4(F)F)c1)OCC2)c1ccc(NS(=O)(=O)CCO)cc1N1CCC2(CC1)CC2 (stereo not shown) [Compound 114]	< 0.2 µM	0.0107 µM
O=C(Nc1cccc2c1cc1n2CCCCC1)c1ccc(NS(=O)(=O)CCO)cc1N1CCC2(CC1)CC2 [Compound 115]	< 0.2 µM	0.023 µM
